In the oligonucleotide strings, read from the 5' end, every base follows the letter of its sugar. An asterisk marks phosphorothioate; unmarked linkages are phosphodiester. Other units and linkages are bracketed, terminal groups are in braces. A string of capitals states the bases alone. d = 2'-deoxy (DNA); m = 2'-O-methyl

This data set has as its target T1, human TLR9 (Homo sapiens, UniProt Q9NR96).
T1 construct: HA; host or cells: 293XL-hTLR9-HA (HEK293)
T1 sequence (Q9NR96 26-1032): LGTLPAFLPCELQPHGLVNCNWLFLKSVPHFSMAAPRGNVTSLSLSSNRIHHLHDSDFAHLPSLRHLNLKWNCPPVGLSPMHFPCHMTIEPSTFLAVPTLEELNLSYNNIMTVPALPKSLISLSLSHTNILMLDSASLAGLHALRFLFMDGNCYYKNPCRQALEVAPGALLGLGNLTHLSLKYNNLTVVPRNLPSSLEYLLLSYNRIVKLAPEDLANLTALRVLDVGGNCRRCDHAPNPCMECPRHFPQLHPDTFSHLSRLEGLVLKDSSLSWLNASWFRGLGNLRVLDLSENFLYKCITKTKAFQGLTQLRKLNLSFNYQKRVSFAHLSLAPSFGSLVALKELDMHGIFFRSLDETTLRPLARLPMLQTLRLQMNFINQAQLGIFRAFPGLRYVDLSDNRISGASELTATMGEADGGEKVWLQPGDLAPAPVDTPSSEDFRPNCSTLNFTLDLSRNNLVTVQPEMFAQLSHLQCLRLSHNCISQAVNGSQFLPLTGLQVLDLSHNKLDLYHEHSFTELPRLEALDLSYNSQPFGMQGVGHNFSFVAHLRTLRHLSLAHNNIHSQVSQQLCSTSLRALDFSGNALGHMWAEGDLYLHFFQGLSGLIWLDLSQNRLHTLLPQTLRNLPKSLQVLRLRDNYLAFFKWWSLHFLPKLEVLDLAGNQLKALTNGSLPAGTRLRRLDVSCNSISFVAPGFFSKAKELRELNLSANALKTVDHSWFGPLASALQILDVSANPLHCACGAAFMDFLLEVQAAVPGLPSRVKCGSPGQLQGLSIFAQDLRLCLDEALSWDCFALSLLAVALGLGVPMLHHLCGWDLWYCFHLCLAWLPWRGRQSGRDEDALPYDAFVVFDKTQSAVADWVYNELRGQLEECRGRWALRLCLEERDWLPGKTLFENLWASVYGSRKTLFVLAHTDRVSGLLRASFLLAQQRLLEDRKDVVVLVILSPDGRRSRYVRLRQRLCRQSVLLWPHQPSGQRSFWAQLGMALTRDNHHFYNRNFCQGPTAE
In words: HEK-TLR9 NF-κB-luciferase reporter, ODN2006 stimulation. It counts as cell-based. Conditions: 3mer 2'OMe ASO at 2 uM; HEK-TLR9; value relative to Ligand only = 1.000, NT = 0.000. (Reporter assays use an easily measured gene product as a stand-in for the process of interest.)
UUU (mU*mU*mU): the “TLR9 2 uM” value was 0.936.
With “dA*dA*dA (DNA AAA; listed as DNA, chemistry not fully specified)”, the “TLR9 2 uM” value is listed as 0.845.
“dA*dA*dC (DNA AAC; listed as DNA, chemistry not fully specified)”: the “TLR9 2 uM” value was found to be 0.931.
Regarding “dA*dA*dG (DNA AAG; listed as DNA, chemistry not fully specified)”, the “TLR9 2 uM” value turned out to be 0.870.
In the case of “dA*dC*dA (DNA ACA; listed as RNA, chemistry not fully specified)”, the “TLR9 2 uM” value was found to be 1.042.
As for “dA*dG*dA (DNA AGA; listed as DNA, chemistry not fully specified)”, the figure is 0.848.
Take “dA*dG*dC (DNA AGC; listed as DNA, chemistry not fully specified)”: the “TLR9 2 uM” value is given as 0.749.
As for “dC*dA*dA (CAA; listed as DNA, chemistry not fully specified)”, the “TLR9 2 uM” value turned out to be 0.917.
On to “dC*dA*dC (CAC; listed as RNA, chemistry not fully specified)”, for which the “TLR9 2 uM” value amounted to 0.830.
As for “dC*dC*dA (CCA; listed as DNA, chemistry not fully specified)”, the figure is 1.014; as for “dC*dC*dC (CCC; listed as DNA, chemistry not fully specified)”, 1.069.
The figure for “dC*dC*dG (CCG; listed as DNA, chemistry not fully specified)” is 0.936; for “dC*dG*dA (CGA; listed as DNA, chemistry not fully specified)” it is 1.061.
The figure for dG*dC*dC [GCC] is 1.305.
Regarding dG*dC*dG [GCG], the “TLR9 2 uM” value was determined as 1.299.
As for “mAmUmC (mA*mU*mC) [AUC, 3-mer 2′OMe PS oligo]”, the “TLR9 2 uM” value is 0.884.
As for mCmUmU (antisense mC*mU*mU) [660-3], the figure is 1.108.
The figure for “mGmAmU (mG*mA*mU) [GAU, 3-mer 2′OMe PS oligo]” is 0.700; for “mGmUmA (GUA; all 2'-O-methyl, backbone not given here; further chemistry not fully specified) [shortMut1-3b]” it is 1.042.
For “mGmUmC (mG*mU*mC) [GUC, 3-mer 2′OMe PS oligo]”, the “TLR9 2 uM” value was determined as 0.856.
As for “mGmUmG (mG*mU*mG) [GUG, 3-mer 2′OMe PS oligo]”, the figure is 1.374.
As for “mGmUmU (mG*mU*mU) [GUU, 3-mer 2′OMe PS oligo]”, the figure is 1.159.
For the substance “mUmCmA (mU*mC*mA) [UCA, 3-mer 2′OMe PS oligo]”, the “TLR9 2 uM” value came out at 0.872.
The figure for mUmCmG (antisense mU*mC*mG) [660-3b] is 0.514; for “mUmGmA (mU*mG*mA) [UGA, 3-mer 2′OMe PS oligo]” it is 1.034; for “mUmGmG (mU*mG*mG) [UGG, 3-mer 2′OMe PS oligo]” it is 1.137.
